# Test results reported in patent publication US20240226127A1, “NUCLEOSIDE COMPOUND AND APPLICATION THEREOF IN THE TREATMENT OF FELINE INFECTIOUS PERITONITIS” (VIGONVITA LIFE SCIENCES CO., LTD., priority 2021, published 2024).
# Tests used:
# [1] = test system: Feline Infectious Peritonitis Virus (FIPV); assay: In vitro anti feline infectious peritonitis virus (FIPV) activity in CRFK cells; assay type: cell-based; conditions: Alphacoronavirus 1, 0.1 MOI FIPV, 72 hours, CellTier-Glo cell viability
# Experimental: Well-growing CRFK cells were inoculated on a 96-well plate. When the cells grow to 80%-90% confluence, 0.1 MOI Feline Infectious Peritonitis Virus (FIPV) and different concentrations of test compounds (0.3125 μM, 0.625 μM, 1.25 μM, 2.5 μM, 5 μM, 10 μM, 20 μM, and 40 μM) were added to each well. Simultaneously set up cell control and virus control with 1% DMSO each well. After being incubated at 37° C. for 72 hours, the cells were treated with CellTier-Glo luminescence assay cell viability detection reagents (Promega, Madison, WI, USA), and the half effective concentration (EC50) of the compounds against virus inhibition was calculated by GraphPad prism 7 software.
# [2] = test system: feline infectious peritonitis; assay: Pharmacodynamic experiment on feline infectious peritonitis (subcutaneous aqueous injection); assay type: in vivo; conditions: cats with feline infectious peritonitis, 2 mg/kg once a day subcutaneous aqueous injection, two weeks; for weight changes of cats before and after treatment: FIG. 1; for number of erythrocytes: FIG. 2; for ratio of Albumin to Globulin (A/G): FIG. 3
# Experimental: 15 mg of compounds 1, 32, and 85 was dissolved separately in 5 mL of solution (water:propylene glycol:PEG=2:1:1) to prepare an injection solution for injection administration. The injection can be stored at room temperature. Use a 2 mL disposable veterinary syringe to draw the corresponding volume of the injection solution and expel air upwards. When injecting, choose a site with soft skin, loose subcutaneous tissue, and fewer blood vessels, such as the neck or medial thigh, for subcutaneous injection. The dosage of administration is 2 mg/kg body weight once a day. Blood samples are collected every three days and blood routine and corresponding biochemical indicators are measured. The end of the experiment is marked when the cat's biochemical indicators return to normal. The indicator data measured in the experiment includes body weight data, erythrocyte data, and data of the ratio of Albumin to Globulin. The experimental subjects for each compound are 15 cats diagnosed with feline infectious peritonitis.
# [3] = Solubility test in water (HPLC, external standard method); assay type: physicochemical; conditions: thermodynamic from solid
# Experimental: Experimental method: Refer to the high-performance liquid chromatography method (Chinese Pharmacopoeia, 2020 Edition, Part Four, General Rule 0512) for determination.
# a. Take approximately 1-2 mg of the compound, and place it in a 10 ml volumetric flask. Add lml of water and vigorously shake for 30 seconds every 5 minutes. Observe for 30 minutes. The sample is not completely dissolved. Filter through a 0.45 μm filter membrane, and take the remaining filtrate as the test solution.
# b. Take approximately amount of the reference substance, add solvent (DMSO: methanol=10:90) to dissolve and dilute it quantitatively to produce a solution containing 0.1 mg per 1 ml as the reference substance solution.
# c. Accurately measure 20 μl of each of the reference substance and test solution, and inject them into the liquid chromatograph respectively. Calculate the peak area according to the external standard method. Calculation formula: […]
# In the formula: AT: the main peak area of the test solution; AR: the main peak area of reference substance solution; WR: weighing amount of reference substance solution, mg; VR: dilution volume of reference substance solution, ml; S: content of reference substance solution, %.
# d. Chromatographic conditions: Using octadecylsilane bonded silica gel as the filling agent (Welch Ultimate XB-C18, 4.6×150 mm, suitable for 5 um columns). […]
Structure (SMILES),EC50 [1] [nM],weight changes of cats before and after treatment [2],number of erythrocytes [2],ratio of Albumin to Globulin (A/G) [2],solubility at 30 min [3] [µg/mL]
CC(C)C(=O)OC[C@H]1O[C@@](C#N)(c2ccc3c(N)ncnn23)[C@H](O)[C@@H]1O [Compound 4],650,,,,
CC(=O)OC[C@H]1O[C@@](C#N)(c2ccc3c(N)ncnn23)[C@H](O)[C@@H]1O [Compound 1],,significantly raised,significantly increased,reached normal values,
N#C[C@@]1(c2ccc3c(N)ncnn23)O[C@H](COC(=O)CC(F)(F)F)[C@@H](O)[C@H]1O [Compound 14],2950,,,,
N#C[C@@]1(c2ccc3c(N)ncnn23)O[C@H](COC(=O)C2CCCCC2)[C@@H](O)[C@H]1O [Compound 18],350,,,,
N#C[C@@]1(c2ccc3c(N)ncnn23)O[C@H](COC(=O)CO)[C@@H](O)[C@H]1O [Compound 32],6210,significantly raised,significantly increased,reached normal values,
CN(C)CCN(C)C(=O)OC[C@H]1O[C@@](C#N)(c2ccc3c(N)ncnn23)[C@H](O)[C@@H]1O [Compound 85],,significantly raised,significantly increased,reached normal values,
N#C[C@@]1(c2ccc3c(N)ncnn23)O[C@H](COC(=O)C2CCC2)[C@@H](O)[C@H]1O [Compound 16],810,,,,
N#C[C@@]1(c2ccc3c(N)ncnn23)O[C@H](CO)[C@@H](O)[C@H]1O [GS-441524],,,,,50
